# Earlier results as cited in patent US20230117397A1, “PIRFENIDONE FOR CORONAVIRUS TREATMENT” (Excalibur Pharmaceuticals, Inc., priority 2020, published 2023).
# Where two headings read alike, the source gives them in different places.
# Columns and labels:
# TNF-α [1] = system: TNF-α
# IL-10 [2] = details: pirfenidone pre-treatment; by 3 hours
# IL-10 [3] = details: once daily 50 mg/kg/day or 100 mg/kg/day; dose dependent
# TNF-α [4] = details: pirfenidone added after cell stimulation with endotoxin
# IFN-γ [5] = details: pirfenidone added after cell stimulation with endotoxin
# [6] = not given; remark: listed apart in the source
# [7] = MALDI-FTICR MSI
# endotoxic shock = details: for survival: pretreatment 15 minutes before LPS
# TNF-α [8] = details: pretreatment 5 minutes before LPS
# [9] = not given; remark: listed apart in the source
# TNF-α [10] = details: once daily 50 mg/kg/day or 100 mg/kg/day; dose dependent
# IL-12 = details: pirfenidone pre-treatment before LPS
# [11] = oral, healthy adults
# IL-6 = details: once daily 50 mg/kg/day or 100 mg/kg/day; dose dependent
# IFN-γ [12] = details: pirfenidone pre-treatment before LPS
# [13] = system: silicosis (intratracheal silica slurry)
# [14] = major urinary metabolite of pirfenidone
compound,measurement,setting,value
"Cc1ccc(=O)n(-c2ccccc2)c1 [pirfenidone, 5-methyl-1-phenyl-2-(1H)-pyridone]",half-life,following from the clearance,less than 2 hours
same,drug clearance,oral administration,approximately 30 ml/min/kg
same,TNF-α expression,TNF-α [1]; 200 mg/kg immediately after LPS,inhibited
same,TNF-α expression inhibited,"TNF-α [1]; 200 mg/kg, 30 or 60 minutes before or after LPS",not
same,IL-10 expression enhanced,IL-10 [2],approximately 27 fold
same,IL-10,IL-10 [3],significant reduction
same,levels of secreted TNF-α protein,TNF-α [4],significantly decrease
same,steady state levels of TNF-α RNA,TNF-α [4],did not change
same,levels of secreted IFN-γ protein,IFN-γ [5],significantly decrease
same,steady state levels of IFN-γ RNA,IFN-γ [5],did not change
same,time to maximum serum concentration,[6]; after dosing,within an hour
same,terminal half-life,[6]; in vivo,approximately 2 hours
same,T1/2 in kidney tissue,[7]; kidney tissue,49 min
same,T1/2 in liver tissue,[7]; liver tissue,46 min
same,T1/2 in lung tissue,[7]; lung tissue,67 min
same,survival,"endotoxic shock; 100 mg/kg, 4/8",50%
same,survival,"endotoxic shock; 500 mg/kg, 8/8",100%
same,protection from death,endotoxic shock; pretreatment 3 hours before LPS,partial protection
same,protection from death,endotoxic shock; pretreatment 6 hours or more before LPS,none
same,survived (survivors/animals),endotoxic shock; single oral dose 1 hour after LPS,5/5
same,survived (survivors/animals),endotoxic shock; single oral dose 3 hours after LPS,4/5
same,survived (survivors/animals),endotoxic shock; single oral dose 5 hours after LPS,1/5
same,TNF-α levels suppressed,TNF-α [8],97%
same,most common side effects,[9]; 10% or more greater than placebo,"nausea, dyspepsia and rash"
same,"AST/ALT elevation, incidence",[9]; in vivo,< 3%
same,"bilirubin elevation, incidence",[9]; very rarely,0.1%
same,TNF-α,TNF-α [10],significant reduction
same,IL-12 suppressed,IL-12,84%
same,terminal half-life,[11],approximately 2.5 hours
same,time to maximum levels in blood,[11]; fasting,0.5 h
same,time to maximum levels in blood,[11]; post food,2 h
same,IL-6,IL-6,significant reduction
same,IFN-γ inhibited,IFN-γ [12],91%
same,dose response difference in inflammation and fibrosis,[13]; between the 50 mg/kg/day and 100 mg/kg/day treatment groups,approximately 15%
same,inflammation and resulting fibrosis,[13]; once daily 50 mg/kg/day or 100 mg/kg/day,significantly decreased
O=C(O)c1ccc(=O)n(-c2ccccc2)c1 [5-carboxy-pirfenidone],biological activity,[14],limited to no biological activity
